Like-named read-outs stand apart in the source and are kept apart here.
Legend:
[1] = target: FLNA pentapeptide of SEQ ID NO: 1 (Bn-VAKGL) (Homo sapiens, UniProt P21333); assay: FITC-NLX-based FLNA screening assay (inhibition of FITC-naloxone binding to Bn-VAKGL on streptavidin plates); details: 10 nM FITC-NLX
mu opiate receptor (MOR) = assay: MOR agonist activity using [35S]GTPγS binding assay in striatal membranes; format: biochemical; details: for % DAMGO (0.1 μM) / % DAMGO (1 μM): relative to DAMGO; for % DAMGO + BFNA: 1 μM compound + β-FNA, relative to DAMGO + BFNA
Procedure, shortened: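 Striatal membranes (200 μg) were preincubated 5 min at 30 °C in HEPES pH 7.5 with 100 mM NaCl, 1 mM MgCl2 and 0.5 nM [35S]GTPγS, then 5 min more with 0.1–10 μM compound. Gαo was immunoprecipitated and bound radioactivity counted by scintillation.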

[2] = read-out: Percent Binding Inhibition, FLNA-binding compound 0.01 μM
[3] = read-out: Percent Binding Inhibition, FLNA-binding compound 0.1 μM
[4] = read-out: Percent Binding Inhibition, FLNA-binding compound 1 μM
[5] = Series C-2, 0.1 μM compound, [35S]GTPγS binding to Gαo, striatal membranes
[6] = Series C-2, 1 μM compound + 1 μM β-FNA
[7] = Series C-2, 1 μM compound, [35S]GTPγS binding to Gαo, striatal membranes
[8] = Series C-1, 0.1 μM compound, [35S]GTPγS binding to Gαo, striatal membranes
[9] = Series C-1, 1 μM compound + 1 μM β-FNA
[10] = Series C-1, 1 μM compound, [35S]GTPγS binding to Gαo, striatal membranes

SMILES	inhibition at 0.01 µM [1, 2] [%]	inhibition at 0.1 µM [1, 3] [%]	inhibition at 1 µM [1, 4] [%]	% DAMGO (0.1 μM) (mu opiate receptor (MOR); Series C-2, 0.1 μM compound) [%]	MOR agonist activity, percent [35S]GTPγS binding at the stated compound concentration (mu opiate receptor (MOR); [5]) [%]	MOR agonist activity, percent [35S]GTPγS binding at the stated compound concentration (mu opiate receptor (MOR); [6]) [%]	% DAMGO + BFNA (mu opiate receptor (MOR); Series C-2) [%]	% DAMGO (1 μM) (mu opiate receptor (MOR); Series C-2, 1 μM compound) [%]	MOR agonist activity, percent [35S]GTPγS binding at the stated compound concentration (mu opiate receptor (MOR); [7]) [%]	% DAMGO (0.1 μM) (mu opiate receptor (MOR); Series C-1, 0.1 μM compound) [%]	Concentration of FLNA-Binding Compound as Agonist 0.1 μM (mu opiate receptor (MOR); [8]) [%]	Concentration of FLNA-Binding Compound as Agonist 1 μM + BFNA (mu opiate receptor (MOR); [9]) [%]	% DAMGO + BFNA (mu opiate receptor (MOR); Series C-1) [%]	% DAMGO (1 μM) (mu opiate receptor (MOR); Series C-1, 1 μM compound) [%]	Concentration of FLNA-Binding Compound as Agonist 1 μM (mu opiate receptor (MOR); [10]) [%]	further results
CS(=O)(=O)c1ccc(S(=O)(=O)N2CCOC23CCNCC3)cc1 [Compound C0116M]	53.9	60	62.9	136.6	258.4	152.0	313.4	122.0	302.8							
COc1ccc(C(=O)N2CCC3(CC2)OCCN3C(=O)c2ccc(OC)cc2)cc1 [Compound C0017]										87.1	153.8	94.1	143.2	109.7	284.5	inhibition at 0.01 µM ([1]; FLNA-binding compound 0.01 μM, read-out: Percent Binding Inhibition): 28.9%; inhibition at 0.1 µM ([1]; FLNA-binding compound 0.1 μM, read-out: Percent Binding Inhibition): 35.4%; inhibition at 1 µM ([1]; FLNA-binding compound 1 μM, read-out: Percent Binding Inhibition): 40.7%
CN1CCC2(CC1)OCCN2S(=O)(=O)c1ccc(S(C)(=O)=O)cc1 [Compound C0106M]	45.8	55.6	58.9	102.5	171.8	117.2	246.7	108.3	240.7							
O=S(=O)(c1ccc(C(F)(F)F)cc1Br)N1CCC2(CC1)OCCN2S(=O)(=O)c1ccc(C(F)(F)F)cc1Br [Compound C0071]	39.1	49.6	55.2							160.5	276.3	177.1	513.3	161.7	355.3	
CC(=O)c1ccc(S(=O)(=O)N2C(Cc3c[nH]cn3)C(=O)NC23CCNCC3)cc1 (stereo not drawn) [Compound C0119M]	41.6	55.5	60	71.9	105.7	35.1	89.3	83.0	167.8							
C=CCN1CCC2(CC1)OCCN2S(=O)(=O)c1ccc(OC)cc1 [Compound C0091M]	38.1	39.8	46.3	118.1	207.9	80.8	367.3	108.5	274.4							
Cc1ccccc1S(=O)(=O)N1CCC2(CC1)OCCN2S(=O)(=O)c1ccccc1C [Compound C0015]	31.2	40.6	45.5							78.5	138.7	126.8	193.0	78.9	204.7	
COc1c2c(cc3c1C(CC(=O)c1cccc(C(F)(F)F)c1)[N+](C)(C)CC3)OCO2 (stereo not drawn) [Compound B0006]	45.1	53.5	61.3													% DAMGO (0.1 μM) (mu opiate receptor (MOR); Series B, 0.1 μM compound): 44.8%; MOR agonist activity, percent [35S]GTPγS binding at the stated compound concentration (mu opiate receptor (MOR); Series B, 0.1 μM compound, [35S]GTPγS binding to Gαo, striatal membranes): 77.0%; MOR agonist activity, percent [35S]GTPγS binding at the stated compound concentration (mu opiate receptor (MOR); Series B, 1 μM compound + 1 μM β-FNA): 18.6%; % DAMGO + BFNA (mu opiate receptor (MOR); Series B): 29.0%; % DAMGO (1 μM) (mu opiate receptor (MOR); Series B, 1 μM compound): 47.5%; MOR agonist activity, percent [35S]GTPγS binding at the stated compound concentration (mu opiate receptor (MOR); Series B, 1 μM compound, [35S]GTPγS binding to Gαo, striatal membranes): 131.3%

Source: patent publication US10363239B2, “Method for inhibiting growth of cancer cells” (Pain Therapeutics, Inc., priority 2013, dated 2019)
